Source: EP0025288A1, “Derivatives of monic acid, processes for their preparation, compositions containing them and their preparation” (priority 1979, dated 1981)

Experiments:
Assay type in all cases: cell-based
[1] = system: Corynebacterium pyogenes CY1; assay: MIC, veterinary bacteria; conditions: veterinary bacteria (Table 2)
[2] = system: Ps aeruginosa 10662; assay: MIC, human bacteria, serial dilution in nutrient agar; conditions: nutrient agar containing 5% 'chocolated' horse blood
[3] = system: Staph aureus Russell; assay: as above; conditions: nutrient agar containing 5% 'chocolated' horse blood
[4] = system: Strep agalactiae SPA1; assay: MIC, veterinary bacteria; conditions: veterinary bacteria (Table 2)
[5] = system: M. dispar NCTC 10125; assay: MIC, anti-mycoplasmal, Friis broth solidified with 0.9% agarose; conditions: inoculum 10^3 to 10^5 C.F.U., 6 days incubation at 37°C
[6] = system: Erysipelothrix rhusiopathiae NCTC 8163; assay: MIC, veterinary bacteria; conditions: veterinary bacteria (Table 2)
[7] = system: M. suipneumoniae PW/C/210; assay: MIC, anti-mycoplasmal, Friis broth solidified with 0.9% agarose; conditions: inoculum 10^3 to 10^5 C.F.U., 6 days incubation at 37°C
[8] = system: E coli NCTC 10418; assay: MIC, human bacteria, serial dilution in nutrient agar; conditions: nutrient agar containing 5% 'chocolated' horse blood
[9] = system: M. suipneumoniae UCD 1; assay: MIC, anti-mycoplasmal, Friis broth solidified with 0.9% agarose; conditions: inoculum 10^3 to 10^5 C.F.U., 6 days incubation at 37°C
[10] = system: M. suipneumoniae NCTC 10110; assay: as above; conditions: inoculum 10^3 to 10^5 C.F.U., 6 days incubation at 37°C
[11] = system: M. suipneumoniae MS 16; assay: as above; conditions: inoculum 10^3 to 10^5 C.F.U., 6 days incubation at 37°C
[12] = system: E coli ESS; assay: MIC, human bacteria, serial dilution in nutrient agar; conditions: nutrient agar containing 5% 'chocolated' horse blood
[13] = system: E coli NCTC 10418; assay: MIC, veterinary bacteria; conditions: veterinary bacteria (Table 2)
[14] = system: M. suipneumoniae HK(2); assay: MIC, anti-mycoplasmal, Friis broth solidified with 0.9% agarose; conditions: inoculum 10^3 to 10^5 C.F.U., 6 days incubation at 37°C
[15] = system: Strep uberis SPU1; assay: MIC, veterinary bacteria; conditions: veterinary bacteria (Table 2)
[16] = system: M. suipneumoniae J2206/183b; assay: MIC, anti-mycoplasmal, Friis broth solidified with 0.9% agarose; conditions: inoculum 10^3 to 10^5 C.F.U., 6 days incubation at 37°C
[17] = system: Strep pyogenes A R80/421; assay: MIC, human bacteria, serial dilution in nutrient agar; conditions: Strep pyogenes A R80/421 (footnote b); nutrient agar containing 5% 'chocolated' horse blood
[18] = system: S dublin S7; assay: MIC, veterinary bacteria; conditions: veterinary bacteria (Table 2)
[19] = system: Past Haemolytica PA5; assay: MIC, veterinary bacteria; conditions: veterinary bacteria (Table 2)
[20] = system: Staph aureus W2827; assay: MIC, human bacteria, serial dilution in nutrient agar; conditions: nutrient agar containing 5% 'chocolated' horse blood
[21] = system: Strep dysgalaciae SPD1; assay: MIC, veterinary bacteria; conditions: veterinary bacteria (Table 2)
[22] = system: P mirabilis 889; assay: MIC, human bacteria, serial dilution in nutrient agar; conditions: nutrient agar containing 5% 'chocolated' horse blood
[23] = system: M. suipneumoniae NB12; assay: MIC, anti-mycoplasmal, Friis broth solidified with 0.9% agarose; conditions: inoculum 10^3 to 10^5 C.F.U., 6 days incubation at 37°C
[24] = system: Staph aureus B4 (pen resis); assay: MIC, veterinary bacteria; conditions: veterinary bacteria (Table 2)
[25] = system: Haemophilus influenzae Wy21; assay: MIC, human bacteria, serial dilution in nutrient agar; conditions: nutrient agar containing 5% 'chocolated' horse blood
[26] = system: Neisseria catarrhalis 1502; assay: as above; conditions: Neisseria catarrhalis 1502 (footnote a); nutrient agar containing 5% 'chocolated' horse blood
[27] = system: M. bovigenitalium ATCC 14173; assay: MIC, anti-mycoplasmal, Friis broth solidified with 0.9% agarose; conditions: inoculum 10^3 to 10^5 C.F.U., 6 days incubation at 37°C
[28] = system: Bord bronchiseptica BO8; assay: MIC, veterinary bacteria; conditions: veterinary bacteria (Table 2)
[29] = system: M. gallisepticum S6; assay: MIC, anti-mycoplasmal, Friis broth solidified with 0.9% agarose; conditions: inoculum 10^3 to 10^5 C.F.U., 6 days incubation at 37°C
[30] = system: M. hyosynoviae ATCC 25591; assay: as above; conditions: inoculum 10^3 to 10^5 C.F.U., 6 days incubation at 37°C
[31] = system: Strep pneumoniae CN33; assay: MIC, human bacteria, serial dilution in nutrient agar; conditions: nutrient agar containing 5% 'chocolated' horse blood
[32] = system: M. bovis NCTC 10131; assay: microbe, parasite or virus in culture; conditions: M. bovis NCTC 10131; inoculum 10^3 to 10^5 C.F.U., 6 days incubation at 37°C
[33] = system: Staph aureus 152 (pen sens); assay: MIC, veterinary bacteria; conditions: veterinary bacteria (Table 2)
[34] = system: M. suipneumoniae TAM 6N; assay: MIC, anti-mycoplasmal, Friis broth solidified with 0.9% agarose; conditions: inoculum 10^3 to 10^5 C.F.U., 6 days incubation at 37°C
[35] = system: Past multocida PA1; assay: MIC, veterinary bacteria; conditions: veterinary bacteria (Table 2)
[36] = system: S typhimurium S18; assay: MIC, veterinary bacteria; conditions: veterinary bacteria (Table 2)
[37] = system: M. hyorhinis ATCC 23234; assay: MIC, anti-mycoplasmal, Friis broth solidified with 0.9% agarose; conditions: inoculum 10^3 to 10^5 C.F.U., 6 days incubation at 37°C
[38] = system: Pasteurella multocida 1633; assay: MIC, human bacteria, serial dilution in nutrient agar; conditions: nutrient agar containing 5% 'chocolated' horse blood
[39] = system: M. suipneumoniae Str. 11; assay: MIC, anti-mycoplasmal, Friis broth solidified with 0.9% agarose; conditions: inoculum 10^3 to 10^5 C.F.U., 6 days incubation at 37°C
[40] = system: Strep suis (group D) SPS11; assay: MIC, veterinary bacteria; conditions: veterinary bacteria (Table 2)
[41] = system: Staph aureus Oxford; assay: MIC, human bacteria, serial dilution in nutrient agar; conditions: nutrient agar containing 5% 'chocolated' horse blood
[42] = system: M. suipneumoniae ATCC 25095; assay: MIC, anti-mycoplasmal, Friis broth solidified with 0.9% agarose; conditions: inoculum 10^3 to 10^5 C.F.U., 6 days incubation at 37°C
[43] = system: Strep faecalis I; assay: MIC, human bacteria, serial dilution in nutrient agar; conditions: nutrient agar containing 5% 'chocolated' horse blood
[44] = system: Strep pyogenes B 2788; assay: as above; conditions: nutrient agar containing 5% 'chocolated' horse blood
[45] = system: Corynebacterium zerosis 9755; assay: as above; conditions: nutrient agar containing 5% 'chocolated' horse blood
[46] = system: M. suipneumoniae LABER; assay: MIC, anti-mycoplasmal, Friis broth solidified with 0.9% agarose; conditions: inoculum 10^3 to 10^5 C.F.U., 6 days incubation at 37°C
[47] = system: K aerogenes A; assay: MIC, human bacteria, serial dilution in nutrient agar; conditions: nutrient agar containing 5% 'chocolated' horse blood
[48] = system: Bacillus subtilis 6633; assay: as above; conditions: nutrient agar containing 5% 'chocolated' horse blood
[49] = system: Bord bronchisptica BO9; assay: MIC, veterinary bacteria; conditions: veterinary bacteria (Table 2)
[50] = system: M. pneumoniae ATCC 15492; assay: MIC, anti-mycoplasmal, Friis broth solidified with 0.9% agarose; conditions: inoculum 10^3 to 10^5 C.F.U., 6 days incubation at 37°C
[51] = system: M. suipneumoniae JF 435; assay: as above; conditions: inoculum 10^3 to 10^5 C.F.U., 6 days incubation at 37°C
[52] = system: Staph aureus Oxford; assay: MIC, veterinary bacteria; conditions: veterinary bacteria (Table 2)
[53] = system: Past multocida PA2; assay: MIC, veterinary bacteria; conditions: veterinary bacteria (Table 2)
[54] = system: M. hyorhinis ATCC 25021; assay: MIC, anti-mycoplasmal, Friis broth solidified with 0.9% agarose; conditions: inoculum 10^3 to 10^5 C.F.U., 6 days incubation at 37°C
[55] = system: E coli E1; assay: MIC, veterinary bacteria; conditions: veterinary bacteria (Table 2)
[56] = system: Strep pyogenes C 641848; assay: MIC, human bacteria, serial dilution in nutrient agar; conditions: Strep pyogenes C 641848 (footnote c); nutrient agar containing 5% 'chocolated' horse blood

Substance: Cyclohexan-4-onyl monate A [Example 8]
- MIC [1]: >80 mg/L
- MIC [2]: >100 µm/ml
- MIC [3]: 2.5 µm/ml
- MIC [4]: .625 mg/L
- in vitro MIC [5]: 0.1 mg/L
- MIC [6]: 10 mg/L
- in vitro MIC [7]: 0.25 mg/L
- MIC [8]: >100 µm/ml
- in vitro MIC [9]: 0.5 mg/L
- in vitro MIC [10]: 0.5 mg/L
- in vitro MIC [11]: 0.25 mg/L
- MIC [12]: 0.5 µm/ml
- MIC [13]: >80 mg/L
- in vitro MIC [14]: 0.5 mg/L
- MIC [15]: .312 mg/L
- in vitro MIC [16]: 0.5 mg/L
- MIC [17]: ^b0.5 µm/ml
- MIC [18]: >80 mg/L
- MIC [19]: 5 mg/L
- MIC [20]: 2.5 µm/ml
- MIC [21]: .156 mg/L
- MIC [22]: 100 µm/ml
- in vitro MIC [23]: 0.25 mg/L
- MIC [24]: 2.5 mg/L
- MIC [25]: 0.1 µm/ml
- MIC [26]: ^a0.5 µm/ml
- in vitro MIC [27]: 0.025 mg/L
- MIC [28]: 80 mg/L
- in vitro MIC [29]: 5.0 mg/L
- in vitro MIC [30]: 0.1 mg/L
- MIC [31]: 0.5 µm/ml
- in vitro MIC [32]: 0.025 mg/L
- MIC [33]: 1.25 mg/L
- in vitro MIC [34]: 0.5 mg/L
- MIC [35]: .312 mg/L
- MIC [36]: >80 mg/L
- in vitro MIC [37]: 0.25 mg/L
- MIC [38]: 0.5 µm/ml
- in vitro MIC [39]: 0.25 mg/L
- MIC [40]: 2.5 mg/L
- MIC [41]: 1.0 µm/ml
- in vitro MIC [42]: 0.25 mg/L
- MIC [43]: 25.0 µm/ml
- MIC [44]: 0.5 µm/ml
- MIC [45]: >100 µm/ml
- in vitro MIC [46]: 0.25 mg/L
- MIC [47]: >100 µm/ml
- MIC [48]: 0.5 µm/ml
- MIC [49]: 20 mg/L
- in vitro MIC [50]: 1.0 mg/L
- in vitro MIC [51]: 0.5 mg/L
- MIC [52]: 1.25 mg/L
- MIC [53]: .156 mg/L
- in vitro MIC [54]: 0.25 mg/L
- MIC [55]: >80 mg/L
- MIC [56]: ^c0.5 µm/ml
